Reference: patent US20180325914A1, “INCREASING STORAGE OF VITAMIN A, VITAMIN D AND/OR LIPIDS” (Salk Institute for Biological Studies, priority 2014, published 2018)

System: pro-fibrotic gene expression (COL1A1) in LX-2 cells
Test: qRT-PCR of pro-fibrotic gene expression in LX-2 cells
Details: 500 nM, 16 hr, equimolar doses, absence or presence of TGFβ1 (5 ng/ml), compared with JQ1

| SMILES | inhibitory effects on the expression of a wide range of pro-fibrotic genes |
| --- | --- |
| COc1ccccc1S(=O)(=O)Nc1ccc2c(c1)CN(C)C(=O)N2 [PFI-1] | comparable inhibitory effects to JQ1 |
| COc1cc2c(cc1-c1c(C)noc1C)ncc1[nH]c(=O)n([C@H](C)c3ccccn3)c12 [I-BET-151] | comparable inhibitory effects to JQ1 |
